PubChem BioAssay (NCI)
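GI50: concentration for 50% inhibition of growth. The concentration for full growth arrest is given as TGI.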

Columns and labels:
Assay in all cases: NCI anticancer screen, dose series, 384-well format
MOLT-4 leukemia = system: MOLT-4 leukemia
NCI/ADR-RES ovarian = system: NCI/ADR-RES ovarian
SF-295 CNS = system: SF-295 CNS
HL-60(TB) leukemia = system: HL-60(TB) leukemia
MDA-MB-468 breast = system: MDA-MB-468 breast
SK-MEL-5 melanoma = system: SK-MEL-5 melanoma
K-562 leukemia = system: K-562 leukemia
OVCAR-5 ovarian = system: OVCAR-5 ovarian
HCT-116 colon = system: HCT-116 colon
DU-145 prostate = system: DU-145 prostate
SK-OV-3 ovarian = system: SK-OV-3 ovarian
HCC-2998 colon = system: HCC-2998 colon
MDA-MB-435 melanoma = system: MDA-MB-435 melanoma
TK-10 renal = system: TK-10 renal
NCI-H522 lung = system: NCI-H522 lung
UACC-62 melanoma = system: UACC-62 melanoma
MCF7 breast = system: MCF7 breast
U251 glioblastoma = system: U251 glioblastoma
HS 578T breast = system: HS 578T breast
786-0 renal = system: 786-0 renal
A498 renal = system: A498 renal
SF-539 CNS = system: SF-539 CNS
A549 NSCLC = system: A549 NSCLC
BT-549 breast = system: BT-549 breast
MALME-3M melanoma = system: MALME-3M melanoma
NCI-H23 lung = system: NCI-H23 lung
PC-3 prostate = system: PC-3 prostate
T-47D breast = system: T-47D breast
OVCAR-8 ovarian = system: OVCAR-8 ovarian
HCT-15 colon = system: HCT-15 colon
SNB-75 CNS = system: SNB-75 CNS
IGROV1 ovarian = system: IGROV1 ovarian
LOX IMVI melanoma = system: LOX IMVI melanoma
KM12 colon = system: KM12 colon
MDA-MB-231 breast = system: MDA-MB-231 breast
HOP-62 NSCLC = system: HOP-62 NSCLC
OVCAR-4 ovarian = system: OVCAR-4 ovarian
RPMI-8226 leukemia = system: RPMI-8226 leukemia
EKVX NSCLC = system: EKVX NSCLC
RXF 393 renal = system: RXF 393 renal
OVCAR-3 ovarian = system: OVCAR-3 ovarian
SK-MEL-28 melanoma = system: SK-MEL-28 melanoma
HOP-92 NSCLC = system: HOP-92 NSCLC
HT29 colon = system: HT29 colon
ACHN renal = system: ACHN renal
SK-MEL-2 melanoma = system: SK-MEL-2 melanoma
CAKI-1 renal = system: CAKI-1 renal
NCI-H460 NSCLC = system: NCI-H460 NSCLC
SR leukemia = system: SR leukemia
SN12C renal = system: SN12C renal
SW-620 colon = system: SW-620 colon
UACC-257 melanoma = system: UACC-257 melanoma
CCRF-CEM leukemia = system: CCRF-CEM leukemia
NCI-H322M lung = system: NCI-H322M lung
SF-268 CNS = system: SF-268 CNS
M14 melanoma = system: M14 melanoma
COLO 205 colon = system: COLO 205 colon
SNB-19 CNS = system: SNB-19 CNS

Which results are given for COc1cc(F)ccc1-c1ncnc(Nc2cccc(CS(C)(=N)=O)c2)n1 (centres undefined)?
GI50 (MOLT-4 leukemia): 0.506 µM; TGI (MOLT-4 leukemia): 1.62 µM; GI50 (NCI/ADR-RES ovarian): 2.58 µM; TGI (NCI/ADR-RES ovarian): 21.8 µM; GI50 (SF-295 CNS): 1.21 µM; TGI (SF-295 CNS): 5.07 µM; GI50 (HL-60(TB) leukemia): 0.182 µM; TGI (HL-60(TB) leukemia): 0.391 µM; GI50 (MDA-MB-468 breast): 1.12 µM; TGI (MDA-MB-468 breast): 2.47 µM; GI50 (SK-MEL-5 melanoma): 0.455 µM; TGI (SK-MEL-5 melanoma): 1.84 µM; GI50 (K-562 leukemia): 2 µM; TGI (K-562 leukemia): 15 µM; GI50 (OVCAR-5 ovarian): 0.316 µM; TGI (OVCAR-5 ovarian): > 100 µM; GI50 (HCT-116 colon): 0.3 µM; TGI (HCT-116 colon): > 100 µM; GI50 (DU-145 prostate): 0.402 µM; TGI (DU-145 prostate): 3.75 µM; GI50 (SK-OV-3 ovarian): 2.55 µM; TGI (SK-OV-3 ovarian): 6.68 µM; GI50 (HCC-2998 colon): 1 µM; TGI (HCC-2998 colon): 3.77 µM; GI50 (MDA-MB-435 melanoma): 1.44 µM; TGI (MDA-MB-435 melanoma): > 19.7 µM; GI50 (TK-10 renal): 0.819 µM; TGI (TK-10 renal): > 100 µM; GI50 (NCI-H522 lung): 1.77 µM; TGI (NCI-H522 lung): 4.12 µM; GI50 (UACC-62 melanoma): 0.24 µM; TGI (UACC-62 melanoma): 1.08 µM; GI50 (MCF7 breast): 0.408 µM; TGI (MCF7 breast): > 100 µM; GI50 (U251 glioblastoma): 0.872 µM; TGI (U251 glioblastoma): > 19.9 µM; GI50 (HS 578T breast): 0.465 µM; TGI (HS 578T breast): 1.69 µM; GI50 ([…]-0 renal): 0.683 µM; TGI (786-0 renal): 3.88 µM; GI50 (A498 renal): 0.448 µM; GI50 (SF-539 CNS): 0.986 µM; TGI (SF-539 CNS): 2.82 µM; GI50 (A549 NSCLC): 1.61 µM; TGI (A549 NSCLC): > 100 µM; GI50 (BT-549 breast): 0.773 µM; TGI (BT-549 breast): 2.6 µM; GI50 (MALME-3M melanoma): 0.843 µM; TGI (MALME-3M melanoma): 2.3 µM; GI50 (NCI-H23 lung): 0.568 µM; TGI (NCI-H23 lung): 2.24 µM; GI50 (PC-3 prostate): 0.795 µM; TGI (PC-3 prostate): 4.96 µM; GI50 (T-47D breast): 3.01 µM; TGI (T-47D breast): > 100 µM; GI50 (OVCAR-8 ovarian): 0.52 µM; TGI (OVCAR-8 ovarian): 2.61 µM; GI50 (HCT-15 colon): 0.462 µM; GI50 (SNB-75 CNS): 0.592 µM; TGI (SNB-75 CNS): 2.18 µM; GI50 (IGROV1 ovarian): 0.919 µM; TGI (IGROV1 ovarian): > 100 µM; GI50 (LOX IMVI melanoma): 0.312 µM; TGI (LOX IMVI melanoma): 1.66 µM; GI50 (KM12 colon): 0.322 µM; TGI (KM12 colon): 2.12 µM; GI50 (MDA-MB-231 breast): 0.559 µM; TGI (MDA-MB-231 breast): 2.68 µM; GI50 (HOP-62 NSCLC): 0.33 µM; TGI (HOP-62 NSCLC): 1.5 µM; GI50 (OVCAR-4 ovarian): 1.83 µM; TGI (OVCAR-4 ovarian): 6.09 µM; GI50 (RPMI-8226 leukemia): 1.7 µM; TGI (RPMI-8226 leukemia): 3.08 µM; GI50 (EKVX NSCLC): 1.28 µM; TGI (EKVX NSCLC): 4.28 µM; GI50 (RXF 393 renal): 0.228 µM; TGI (RXF 393 renal): 0.586 µM; GI50 (OVCAR-3 ovarian): 0.384 µM; TGI (OVCAR-3 ovarian): 1.81 µM; GI50 (SK-MEL-28 melanoma): 0.572 µM; TGI (SK-MEL-28 melanoma): 2.36 µM; GI50 (HOP-92 NSCLC): 1.7 µM; TGI (HOP-92 NSCLC): > 23.9 µM; GI50 (HT29 colon): 1.4 µM; TGI (HT29 colon): 4.15 µM; GI50 (ACHN renal): 0.51 µM; TGI (ACHN renal): > 100 µM; GI50 (SK-MEL-2 melanoma): 1.04 µM; TGI (SK-MEL-2 melanoma): 2.46 µM; GI50 (CAKI-1 renal): 0.404 µM; TGI (CAKI-1 renal): > 100 µM; GI50 (NCI-H460 NSCLC): 0.815 µM; TGI (NCI-H460 NSCLC): 3.56 µM; GI50 (SR leukemia): 0.0395 µM; TGI (SR leukemia): 0.112 µM; GI50 (SN12C renal): 0.668 µM; TGI (SN12C renal): 3.52 µM; GI50 (SW-620 colon): 0.776 µM; TGI (SW-620 colon): 4.82 µM; GI50 (UACC-257 melanoma): 1.6 µM; TGI (UACC-257 melanoma): 3.44 µM; GI50 (CCRF-CEM leukemia): 0.299 µM; TGI (CCRF-CEM leukemia): 1.05 µM; GI50 (NCI-H322M lung): 0.384 µM; TGI (NCI-H322M lung): 2.61 µM; GI50 (SF-268 CNS): 0.331 µM; TGI (SF-268 CNS): 1.41 µM; GI50 (M14 melanoma): 0.98 µM; TGI (M14 melanoma): 3.86 µM; GI50 (COLO 205 colon): 0.339 µM; TGI (COLO 205 colon): 1.92 µM; GI50 (SNB-19 CNS): 0.988 µM; TGI (SNB-19 CNS): > 100 µM
